What was measured:
Format in all cases: in vivo
Lolium perenne (LOLPE) [1] = assay: Example B pre-emergence herbicidal test, LOLPE; conditions: Lolium perenne, 312 h, rate 250 g/ha, evaluated after 13 days, 100=total damage to plant, 0=no damage to plant
Method in brief: (§1)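 Pots sown, sprayed day 1 pre-emergence; spray: aqueous dilution of formulation in acetone/water 50:50 + 0.5% Tween 20. Glasshouse 24/16° C, 14 h light, 65% RH, watering twice daily. Visual damage rating at 13 d, 0–100 scale.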

[2] = test system: Alopecurus myosuroides (ALOMY); assay: Example B pre-emergence herbicidal test, ALOMY; conditions: Alopecurus myosuroides, 312 h, rate 250 g/ha, evaluated after 13 days, 100=total damage to plant, 0=no damage to plant
Method in brief: as §1

[3] = test system: Echinochloa crus-galli (ECHCG); assay: Example B pre-emergence herbicidal test, ECHCG; conditions: Echinochloa crus-galli, 312 h, rate 250 g/ha, evaluated after 13 days, 100=total damage to plant, 0=no damage to plant
Method in brief: as §1

Avena fatua (AVEFA) [4] = assay: Example B pre-emergence herbicidal test, AVEFA; conditions: Avena fatua, 312 h, rate 250 g/ha, evaluated after 13 days, 100=total damage to plant, 0=no damage to plant
Method in brief: as §1

Lolium perenne (LOLPE) [5] = assay: Example B post-emergence herbicidal test, LOLPE; conditions: Lolium perenne, 312 h, rate 250 g/ha, evaluated after 13 days, scale 0-100, read-out: Post-emergence activity LOLPE (100=total damage to plant; 0=no damage to plant)
Method in brief: (§2)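 Foliar application to 8-day-old pot-grown seedlings in a glasshouse (24/16 °C, 14 h photoperiod, 65% humidity). Spray solution was derived from an acetone/water (50:50) formulation with 0.5% Tween 20. Injury was assessed 13 days later on a 0–100 scale.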

[6] = test system: Alopecurus myosuroides (ALOMY); assay: Example B post-emergence herbicidal test, ALOMY; conditions: Alopecurus myosuroides, 312 h, rate 250 g/ha, evaluated after 13 days, scale 0-100, read-out: Post-emergence activity ALOMY (100=total damage to plant; 0=no damage to plant)
Method in brief: as §2

[7] = test system: Echinochloa crus-galli (ECHCG); assay: Example B post-emergence herbicidal test, ECHCG; conditions: Echinochloa crus-galli, 312 h, rate 250 g/ha, evaluated after 13 days, scale 0-100, read-out: Post-emergence activity ECHCG (100=total damage to plant; 0=no damage to plant)
Method in brief: as §2

Avena fatua (AVEFA) [8] = assay: Example B post-emergence herbicidal test, AVEFA; conditions: Avena fatua, 312 h, rate 250 g/ha, evaluated after 13 days, scale 0-100, read-out: Post-emergence activity AVEFA (100=total damage to plant; 0=no damage to plant)
Method in brief: as §2

Row | SMILES | pest or weed control at 250 g/ha (Lolium perenne (LOLPE) [1]) | pest or weed control at 250 g/ha [2] | pest or weed control at 250 g/ha [3] | pest or weed control at 250 g/ha (Avena fatua (AVEFA) [4]) | pest or weed control at 250 g/ha (Lolium perenne (LOLPE) [5]) | pest or weed control at 250 g/ha [6] | pest or weed control at 250 g/ha [7] | pest or weed control at 250 g/ha (Avena fatua (AVEFA) [8])
1 | Cc1cc(-c2ccccc2F)cc(C)c1C1C(=O)CC(CC2CCOCC2)C1=O (stereo not drawn) [Compound T139] | 80% | 70% | 90% | 60% | 90% | 90% | 100% | 90%
2 | Cc1cc(-c2ccccc2F)cc(C)c1C1C(=O)CC(CC2CCOC2)C1=O (stereo not drawn) [Compound T140] | 70% | 60% | 90% | 50% | 90% | 90% | 90% | 60%
3 | Cc1cc(C)c(C2C(=O)CC(CC3CCN(C(=O)C4CC4)C3)C2=O)c(C)c1 (stereo not drawn) [Compound T141] | 80% | 80% | 80% | 80% | 70% | 80% | 60% | 90%
4 | Cc1cc(C)c(C2C(=O)CC(CC3CCN(C(=O)C(C)C)C3)C2=O)c(C)c1 (stereo not drawn) [Compound T142] | 70% | 90% | 90% | 80% | 70% | 90% | 60% | 90%
5 | Cc1cc(C)c(C2C(=O)CC(CC3CCN(C(=O)C(C)(C)C)C3)C2=O)c(C)c1 (stereo not drawn) [Compound T143] | 100% | 80% | 100% | 50% | 60% | 60% | 60% | 80%
6 | CC(C)=CC(=O)N1CCC(CC2CC(=O)C(c3c(C)cc(C)cc3C)C2=O)C1 (stereo not drawn) [Compound T144] | 70% | 80% | 90% | 70% | 80% | 80% | 80% | 90%
7 | Cc1cc(C)c(C2C(=O)CC(CC3CCN(C(=O)C(C)(C)CCl)C3)C2=O)c(C)c1 (stereo not drawn) [Compound T145] | 50% | 60% | 20% | 30% | 40% | 60% | 30% | 50%
8 | Cc1cc(C)c(C2C(=O)CC(CC3CCN(C(=O)c4cccs4)C3)C2=O)c(C)c1 (stereo not drawn) [Compound T146] | 90% | 70% | 70% | 50% | 80% | 80% | 70% | 90%
9 | Cc1cc(C)c(C2C(=O)CC(CC3CCN(C(=O)c4ccco4)C3)C2=O)c(C)c1 (stereo not drawn) [Compound T147] | 30% | 50% | 40% | 10% | 40% | 60% | 50% | 70%
10 | Cc1cc(C)c(C2C(=O)CC(CC3CCN(C(=O)c4c(C)noc4C)C3)C2=O)c(C)c1 (stereo not drawn) [Compound T148] | 50% | 70% | 30% | 40% | 70% | 80% | 60% | 100%
11 | COc1ccc(CC2C(=O)C(c3c(C)cc(C)cc3C)C(=O)C2CC2CCOC2)cc1 (stereo not drawn) [Compound T149] | 20% | 30% | 30% | 10% | 40% | 30% | 20% | 40%
12 | Cc1cc(C)c(C2C(=O)C(Cc3ccccc3)C(CC3CCOC3)C2=O)c(C)c1 (stereo not drawn) [Compound T151] | 30% | 20% | 40% | 10% | 20% | 30% | 40% | 10%
13 | Cc1cc(C)c(C2C(=O)CC(CC3CCOC3C)C2=O)c(C)c1 (stereo not drawn) [Compound T156] | 100% | 80% | 100% | 70% | 100% | 90% | 70% | 90%
14 | Cc1cc(-c2ccc(C(F)(F)F)cc2)cc(C)c1C1C(=O)CC(CC2CCOC2)C1=O (stereo not drawn) [Compound T157] | 10% | 10% | 40% | 0% | 30% | 30% | 60% | 50%
15 | Cc1cc(-c2ccc(F)cc2)cc(C)c1C1C(=O)CC(CC2CCOC2)C1=O (stereo not drawn) [Compound T158] | 90% | 80% | 100% | 70% | 100% | 100% | 100% | 100%
16 | Cc1cc(-c2ccccc2)cc(C)c1C1C(=O)CC(CC2CCOC2)C1=O (stereo not drawn) [Compound T159] | 70% | 50% | 100% | 30% | 100% | 90% | 100% | 90%
17 | Cc1cc(Br)cc(C)c1C1C(=O)CC(CC2CCOC2)C1=O (stereo not drawn) [Compound T160] | 90% | 30% | 70% | 40% | 100% | 40% | 70% | 60%
18 | Cc1cc(C)c(C2C(=O)CC(CC3CCN(C(=O)C(F)(F)C(F)F)CC3)C2=O)c(C)c1 (stereo not drawn) [Compound T161] | 90% | 30% | 100% | 60% | 100% | 70% | 90% | 90%

— patent publication US9096560B2, “5-heterocyclylalkyl-3-hydroxy-2-phenylcyclopent-2-enones as herbicides” (Syngenta Limited, priority 2008, dated 2015)
